Assay results from patent US9221825B2, “Pyrazolopyrimidinone compound and imidazo triazone compound for treating erectile dysfunction” (Zhejiang Dade Pharmaceutical Group Co., Ltd., priority 2011, dated 2015).

Test system: adult sexual mature male Sprague-Dawley rats
Assay: Efficacy test of the drug for anti-Erectile Dysfunction (copulation test)
Format: in vivo, rat
Conditions: for Catching times / Latent period of catch behavior / Riding times: intragastric administration
[1] = animal experiments, in comparison with Sildenafil
[2] = male Sprague-Dawley rats, dosage 2.2 mg/kg bw
[3] = male Sprague-Dawley rats, dosage 4.4 mg/kg bw
[4] = male Sprague-Dawley rats, dosage 8.8 mg/kg bw

Compound | Effective drug duration [1] | Onset time [1] | Effect on catching times in comparison with the solution control group (male Sprague-Dawley rats, P<0.05) | Catching times [2] [times] | Latent period of catch behavior [2] [s] | Riding times [2] [times] | Catching times [3] [times] | Latent period of catch behavior [3] [s] | Riding times [3] [times] | Catching times [4] [times] | Latent period of catch behavior [4] [s] | Riding times [4] [times]
CCCc1nn(C)c2c(=O)[nH]c(-c3cc(S(=O)(=O)N4CCCN(C)CC4)ccc3OCC)nc12.O=C(O)CC(O)(CC(=O)O)C(=O)O [ED9001, 5-[2-ethoxy-5-(4-methyl-1-homopiperazinylsulfonyl)]-phenyl-1-methyl-3-n-propyl-1,6-dihydro-7H-pyrazolo[4,3-d]pyrimidine-7-one citrate] | longer | shorter | distinct effect on improving catching times | 31 ± 9 | 12.1 ± 3.6 | 24 ± 7 | 26 ± 9 | 14.4 ± 7.5 | 21 ± 7 | 32 ± 9 | 14.2 ± 4.9 | 27 ± 10
CCCc1nn(C)c2c(=O)[nH]c(-c3cc(S(=O)(=O)N4CCN(C)CC4)ccc3OCC)nc12 [Sildenafil, reference compound] |  |  |  |  |  |  | 27 ± 6 | 12.5 ± 6.5 | 24 ± 7 |  |  | 
